According to patent publication US6399561B1, “Methods and compositions for bleaching a dye in solution” (Novozymes A/S, priority 1998, dated 2002):

What was measured:
Format in all cases: biochemical
[1] = target: T1, Polyporus pinsitus laccase (Trametes villosa, UniProt Q99044); assay: Bleaching of methyl orange using rPpL and NOH-type enhancing agents (initial bleaching rate); conditions: rPpL solution diluted 1:200, 0.2 mM mediator, 30° C., large negative numbers = best performance
T1 construct: made in house
T1 sequence (Q99044 22-520): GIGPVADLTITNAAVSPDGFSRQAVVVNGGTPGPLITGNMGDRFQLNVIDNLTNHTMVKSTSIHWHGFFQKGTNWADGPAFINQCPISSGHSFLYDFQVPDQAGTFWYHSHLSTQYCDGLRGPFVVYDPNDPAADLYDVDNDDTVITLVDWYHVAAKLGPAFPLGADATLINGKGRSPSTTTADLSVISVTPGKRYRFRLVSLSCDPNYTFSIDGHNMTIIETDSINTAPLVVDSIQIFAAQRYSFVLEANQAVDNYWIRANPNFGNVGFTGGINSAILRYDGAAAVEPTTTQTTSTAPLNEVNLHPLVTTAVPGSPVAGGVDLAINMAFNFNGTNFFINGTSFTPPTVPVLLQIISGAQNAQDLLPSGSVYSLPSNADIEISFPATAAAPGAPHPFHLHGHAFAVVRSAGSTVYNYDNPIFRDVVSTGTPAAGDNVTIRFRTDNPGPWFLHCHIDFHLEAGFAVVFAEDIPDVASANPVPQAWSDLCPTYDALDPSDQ
Description: (§1) Britton-Robinson buffer is composed of:
(§2) Methyl orange (Merck, Germany)
(§3) Reactions were started by addition of enzyme. Absorbance at 464 nm was followed for 3 minutes (readings every 5 seconds) on a Cobas Fara at 30° C. Initial bleaching rates were determined from the first linear part of the progress curves.
(§4) The N—OH compounds listed above were tested as laccase mediators in bleaching of methyl orange with three recombinant laccases (rPpL, rMtL and rCcL) at various pH values. Large negative numbers represent the best performance.

[2] = tested on: Recombinant Coprinus cinereus laccase (rCcL); assay: Bleaching of methyl orange using rCcL and NOH-type enhancing agents (initial bleaching rate); conditions: rCcL solution diluted 1:200, 0.2 mM mediator, 30° C., large negative numbers = best performance
Description: as §1, §2, §3, §4

[3] = tested on: Recombinant Myceliophthora thermophila laccase (rMtL); assay: Bleaching of methyl orange using rMtL and NOH-type enhancing agents (initial bleaching rate); conditions: rMtL solution diluted 1:300, 0.2 mM mediator, 30° C., large negative numbers = best performance
Description: as §1, §2, §3, §4

In the case of `[O-][n+]1cccc2ccccc21` [Quinoline-N-oxide], the “Initial changes per minute in A464 nm of methyl orange using rPpL” value (from here on “Initial changes per minute … using rPpL”) ([1]; pH 4) is reported as −0.074 per minute, the “Initial changes per minute … using rPpL” value ([1]; pH 5) is reported as −0.041 per minute and the “Initial changes per minute … using rPpL” value ([1]; pH 6) is reported as −0.016 per minute. For the same compound, the “Initial changes per minute … using rPpL” value ([1]; pH 7) was −0.002 per minute, the “Initial changes per minute in A464 nm of methyl orange using rCcL” value (“Initial changes per minute … using rCcL” for short) ([2]; pH 4) was −0.004 per minute and the “Initial changes per minute … using rCcL” value ([2]; pH 5) was −0.006 per minute. The “Initial changes per minute … using rCcL” value ([2]; pH 6) was −0.010 per minute, the “Initial changes per minute … using rCcL” value ([2]; pH 7) was −0.008 per minute and the “Initial changes per minute … using rCcL” value ([2]; pH 8) was −0.004 per minute. The “Initial changes per minute in A464 nm of methyl orange using rMtL” value (“Initial changes per minute … using rMtL” for short) ([3]; pH 4) was −0.016 per minute, the “Initial changes per minute … using rMtL” value ([3]; pH 5) was −0.011 per minute and the “Initial changes per minute … using rMtL” value ([3]; pH 6) was −0.002 per minute. The “Initial changes per minute … using rMtL” value ([3]; pH 7) was 0.000 per minute.

In the case of `O=C1c2ccccc2C(=O)N1O` [N-hydroxyphthalimide], the “Initial changes per minute … using rPpL” value ([1]; pH 4) is reported as −0.050 per minute, the “Initial changes per minute … using rPpL” value ([1]; pH 5) is reported as −0.035 per minute and the “Initial changes per minute … using rPpL” value ([1]; pH 6) is reported as −0.011 per minute. The “Initial changes per minute … using rPpL” value ([1]; pH 7) was −0.001 per minute, the “Initial changes per minute … using rCcL” value ([2]; pH 4) was −0.006 per minute and the “Initial changes per minute … using rCcL” value ([2]; pH 5) was −0.007 per minute. For the same compound, the “Initial changes per minute … using rCcL” value ([2]; pH 6) was −0.014 per minute, the “Initial changes per minute … using rCcL” value ([2]; pH 7) was −0.011 per minute and the “Initial changes per minute … using rCcL” value ([2]; pH 8) was −0.004 per minute. For the same compound, the “Initial changes per minute … using rMtL” value ([3]; pH 4) was −0.019 per minute, the “Initial changes per minute … using rMtL” value ([3]; pH 5) was −0.016 per minute and the “Initial changes per minute … using rMtL” value ([3]; pH 6) was −0.005 per minute. For the same compound, the “Initial changes per minute … using rMtL” value ([3]; pH 7) was 0.000 per minute.

For `CS(=O)(=O)c1ccc2ccn(OC(=O)c3ccccc3)c2c1` [PFC-202, Benzoic acid[6-(methylsulphonyl)indol-1-yl]ester], the “Initial changes per minute … using rPpL” value ([1]; pH 4) was −0.047 per minute, the “Initial changes per minute … using rPpL” value ([1]; pH 5) was −0.035 per minute and the “Initial changes per minute … using rPpL” value ([1]; pH 6) was −0.001 per minute. The “Initial changes per minute … using rPpL” value ([1]; pH 7) was 0.000 per minute, the “Initial changes per minute … using rCcL” value ([2]; pH 4) was −0.005 per minute and the “Initial changes per minute … using rCcL” value ([2]; pH 5) was −0.010 per minute. For the same compound, the “Initial changes per minute … using rCcL” value ([2]; pH 6) was −0.016 per minute, the “Initial changes per minute … using rCcL” value ([2]; pH 7) was 0.000 per minute and the “Initial changes per minute … using rCcL” value ([2]; pH 8) was 0.011 per minute. For the same compound, the “Initial changes per minute … using rMtL” value ([3]; pH 4) was −0.020 per minute, the “Initial changes per minute … using rMtL” value ([3]; pH 5) was −0.017 per minute and the “Initial changes per minute … using rMtL” value ([3]; pH 6) was 0.001 per minute. The “Initial changes per minute … using rMtL” value ([3]; pH 7) was 0.005 per minute.

With `O=c1[nH]c(=O)[nH]c(=O)[nH]1` [Cyanuric acid] the “Initial changes per minute … using rPpL” value ([1]; pH 4) was −0.037 per minute, the “Initial changes per minute … using rPpL” value ([1]; pH 5) was −0.022 per minute and the “Initial changes per minute … using rPpL” value ([1]; pH 6) was −0.011 per minute. The “Initial changes per minute … using rPpL” value ([1]; pH 7) was −0.002 per minute, the “Initial changes per minute … using rCcL” value ([2]; pH 4) was −0.005 per minute and the “Initial changes per minute … using rCcL” value ([2]; pH 5) was −0.008 per minute. For the same compound, the “Initial changes per minute … using rCcL” value ([2]; pH 6) was −0.012 per minute, the “Initial changes per minute … using rCcL” value ([2]; pH 7) was −0.012 per minute and the “Initial changes per minute … using rCcL” value ([2]; pH 8) was −0.005 per minute. The “Initial changes per minute … using rMtL” value ([3]; pH 4) was −0.013 per minute, the “Initial changes per minute … using rMtL” value ([3]; pH 5) was 0.010 per minute and the “Initial changes per minute … using rMtL” value ([3]; pH 6) was −0.002 per minute. The “Initial changes per minute … using rMtL” value ([3]; pH 7) was 0.000 per minute.

For `On1nnc2ccccc21` [1-hydroxybenzotriazole, 1-Hydroxybenzotriazole], the “Initial changes per minute … using rPpL” value ([1]; pH 4) was −0.206 per minute, the “Initial changes per minute … using rPpL” value ([1]; pH 5) was −0.077 per minute and the “Initial changes per minute … using rPpL” value ([1]; pH 6) was −0.017 per minute. The “Initial changes per minute … using rPpL” value ([1]; pH 7) was −0.005 per minute, the “Initial changes per minute … using rCcL” value ([2]; pH 4) was −0.016 per minute and the “Initial changes per minute … using rCcL” value ([2]; pH 5) was −0.018 per minute. The “Initial changes per minute … using rCcL” value ([2]; pH 6) was −0.019 per minute, the “Initial changes per minute … using rCcL” value ([2]; pH 7) was −0.017 per minute and the “Initial changes per minute … using rCcL” value ([2]; pH 8) was −0.005 per minute. For the same compound, the “Initial changes per minute … using rMtL” value ([3]; pH 4) was −0.050 per minute, the “Initial changes per minute … using rMtL” value ([3]; pH 5) was −0.019 per minute and the “Initial changes per minute … using rMtL” value ([3]; pH 6) was −0.007 per minute. For the same compound, the “Initial changes per minute … using rMtL” value ([3]; pH 7) was −0.002 per minute.

For `ON=C(c1ccccn1)c1ccccn1` [di-2-pyridylketone oxime], the “Initial changes per minute … using rPpL” value ([1]; pH 4) was −0.124 per minute, the “Initial changes per minute … using rPpL” value ([1]; pH 5) was −0.107 per minute and the “Initial changes per minute … using rPpL” value ([1]; pH 6) was −0.053 per minute. The “Initial changes per minute … using rPpL” value ([1]; pH 7) was −0.005 per minute, the “Initial changes per minute … using rCcL” value ([2]; pH 4) was −0.004 per minute and the “Initial changes per minute … using rCcL” value ([2]; pH 5) was −0.006 per minute. For the same compound, the “Initial changes per minute … using rCcL” value ([2]; pH 6) was −0.008 per minute, the “Initial changes per minute … using rCcL” value ([2]; pH 7) was −0.006 per minute and the “Initial changes per minute … using rCcL” value ([2]; pH 8) was −0.001 per minute. The “Initial changes per minute … using rMtL” value ([3]; pH 4) was −0.026 per minute, the “Initial changes per minute … using rMtL” value ([3]; pH 5) was −0.010 per minute and the “Initial changes per minute … using rMtL” value ([3]; pH 6) was −0.001 per minute. For the same compound, the “Initial changes per minute … using rMtL” value ([3]; pH 7) was 0.001 per minute.

In the case of `O=C(c1ccccc1)N(O)c1ccccc1` [N-benzoyl-N-phenylhydroxylamine, N-Benzoyl-N-phenylhydroxylamine], the “Initial changes per minute … using rPpL” value ([1]; pH 4) is reported as −0.732 per minute, the “Initial changes per minute … using rPpL” value ([1]; pH 5) is reported as −1.402 per minute and the “Initial changes per minute … using rPpL” value ([1]; pH 6) is reported as −0.420 per minute. The “Initial changes per minute … using rPpL” value ([1]; pH 7) was −0.012 per minute, the “Initial changes per minute … using rCcL” value ([2]; pH 4) was −0.163 per minute and the “Initial changes per minute … using rCcL” value ([2]; pH 5) was −0.247 per minute. The “Initial changes per minute … using rCcL” value ([2]; pH 6) was −0.529 per minute, the “Initial changes per minute … using rCcL” value ([2]; pH 7) was −0.592 per minute and the “Initial changes per minute … using rCcL” value ([2]; pH 8) was −0.124 per minute. The “Initial changes per minute … using rMtL” value ([3]; pH 4) was −0.269 per minute, the “Initial changes per minute … using rMtL” value ([3]; pH 5) was −0.296 per minute and the “Initial changes per minute … using rMtL” value ([3]; pH 6) was −0.082 per minute. For the same compound, the “Initial changes per minute … using rMtL” value ([3]; pH 7) was −0.012 per minute.

With `CCOc1ccc(N=[N+]([O-])c2ccc(OCC)cc2)cc1` [p,p′-azoxydiphenetole, p,p′-Azoxydiphenetole] the “Initial changes per minute … using rPpL” value ([1]; pH 4) was 0.121 per minute, the “Initial changes per minute … using rPpL” value ([1]; pH 5) was 0.013 per minute and the “Initial changes per minute … using rPpL” value ([1]; pH 6) was 0.017 per minute. For the same compound, the “Initial changes per minute … using rPpL” value ([1]; pH 7) was 0.018 per minute, the “Initial changes per minute … using rCcL” value ([2]; pH 4) was 0.116 per minute and the “Initial changes per minute … using rCcL” value ([2]; pH 5) was 0.196 per minute. The “Initial changes per minute … using rCcL” value ([2]; pH 6) was 0.002 per minute, the “Initial changes per minute … using rCcL” value ([2]; pH 7) was 0.008 per minute and the “Initial changes per minute … using rCcL” value ([2]; pH 8) was 0.019 per minute. The “Initial changes per minute … using rMtL” value ([3]; pH 4) was 0.019 per minute, the “Initial changes per minute … using rMtL” value ([3]; pH 5) was 0.086 per minute and the “Initial changes per minute … using rMtL” value ([3]; pH 6) was 0.012 per minute. The “Initial changes per minute … using rMtL” value ([3]; pH 7) was 0.020 per minute.
